US9040080B2, “Processing of heat-sensitive active agents” (SOUTHWEST RESEARCH INSTITUTE, priority 2008, dated 2015)

Tests used:
[1] = Drug degradation on direct melt processing (extrusion) with PLGA; type: physicochemical; conditions: directly melt processed by extrusion with poly(lactic acid-co glycolic acid) at 75:25 and 85:15 molar ratios, 140° C.-160° C.
Method: For example, about 5% drug degradation was found when brinzolamide, having a melting point in the range of 130-131° C. was directly melt processed by extrusion with poly(lactic acid-co glycolic acid) at 75:25 and 85:15 molar ratios. Melt processing temperatures of the poly(lactic-co glycolic acid) were in the range of 140° C.-160° C.

[2] = HPLC analysis of thermal degradation of brinzolamide in extruded fibers; type: physicochemical; conditions: PLGA microspheres (40%) extruded with poly(caprolactone) (60%)
Excerpt: The active ingredient brinzolamide was microencapsulated in two poly(lactic acid-co-glycolic acid) (PLGA) copolymers, one having a molar ratio of 75/25 (PLGA7525) and one having a molar ratio of 85/15 (PLGA 8515) as discussed further below. The theoretical amount of active agent was 40% by weight in each microencapsulation formulation. The two microsphere formulations were extruded with a lower melting point polymer, poly(caprolactone) (CAPA686), wherein the microspheres were present at 40% by weight and the poly(caprolactone) was present at 60% by weight, forming fibers incorporating the microcapsules therein.

drug degradation [1]: about 5%
thermal degradation of brinzolamide in the fibers [2]: absence of thermal degradation
SMILES: CCN[C@H]1CN(CCCOC)S(=O)(=O)c2sc(S(N)(=O)=O)cc21 [brinzolamide, (R)-(+)-4-Ethylamino-2-(3-methoxypropyl)-3,4-dihydro-2H-thieno[3,2-e]-1,2-thiazine-6-sulfonamide-1,1-dioxide]
